Measurements: US10562882B2, “Piperidine derivatives for use in the treatment or prevention of psychiatric and neurological conditions” (Takeda Pharmaceutical Company Limited, priority 2013, dated 2020)
Where a name gives a salt, the structure may show the parent alone.

Biological target: human PKR1 receptors (Homo sapiens (Human), UniProt Q8TCW9)
Assay: PKR1 antagonist intracellular calcium (FLIPR) assay, block of PK1-mediated calcium release
Type: cell-based
Conditions: RBL2H3 cells expressing human PKR1; PK1 at EC80; minimum of two independent assays
Method: Prokineticin receptor 1 (PKR1) antagonists may be functionally assessed by measurement of change in intracellular calcium levels induced by Gq mediated increase in inositol triphosphate (IP3) levels. The ability of a compound to block the intracellular release of calcium mediated by PK1 in RBL2H3 cells expressing human PKR1 receptors is determined as a measure of the compound's antagonist activity in vitro.
Approximately 10,000 cells per assay well are seeded in normal culture medium in a 384 well plate (Corning). Twenty-four hours after seeding, the cells are loaded with a calcium sensitive fluorescent dye by replacing the culture medium with assay buffer (1× Hanks buffered saline, 25 mM HEPES, 0.1% w/v fatty acid free BSA (bovine serum albumin), pH 7.4) containing 1 mM probenecid and 1× Calcium 5 Reagent (Molecular Devices). Cells are incubated at 37° C. for 1 hour to allow for dye uptake.
To test for antagonist activity, test compounds at a final concentration range between 0.32 nM-10 μM (diluted in assay buffer) are added to duplicate assay wells and allowed to incubate for 10 minutes prior to stimulation with PK1. After incubation with test compounds the assay plate is placed in a FLIPR Tetra (Molecular Devices) and PK1 (diluted in assay buffer) is added at the determined EC80 concentration (final). Ligand-dependent changes in intracellular calcium levels are determined by measuring changes in fluorescence of the dye at […] following excitation at 485 nm. […] A minimum of two IC50 values determined from independent assays are generated for each compound.

Sequence of human PKR1 receptors (Q8TCW9 whole entry): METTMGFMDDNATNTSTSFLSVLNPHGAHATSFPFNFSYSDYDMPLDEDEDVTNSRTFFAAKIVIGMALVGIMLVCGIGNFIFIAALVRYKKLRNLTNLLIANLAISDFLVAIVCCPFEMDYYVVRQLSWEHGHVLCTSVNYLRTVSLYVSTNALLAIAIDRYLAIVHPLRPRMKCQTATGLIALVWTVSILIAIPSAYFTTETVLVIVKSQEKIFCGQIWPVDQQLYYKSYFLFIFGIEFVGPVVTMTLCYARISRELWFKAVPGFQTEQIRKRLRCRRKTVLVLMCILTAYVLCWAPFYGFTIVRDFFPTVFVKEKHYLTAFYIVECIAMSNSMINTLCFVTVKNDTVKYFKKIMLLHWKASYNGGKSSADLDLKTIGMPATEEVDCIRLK

Row | IC50 [µM] | Structure (SMILES)
1 | 0.32 | CC(C)n1c(C2CCCN(C(=O)c3ccnc(N(C)C)c3)C2)nc2ccccc21 (racemic) [Example 1, N,N-Dimethyl-4-{3-[1-(propan-2-yl)-1H-1,3-benzodiazol-2-yl]piperidin-1-carbonyl}pyridin-2-amine (racemic)]
2 | 0.33 | CC(C)n1c(C2CCCN(C(=O)c3ccnc(N(C)C)c3)C2)nc2ccccc21 (single isomer, unassigned; enantiomer 1) [Example 2, N,N-Dimethyl-4-{3-[1-(propan-2-yl)-1H-1,3-benzodiazol-2-yl]piperidine-1-carbonyl}pyridin-2-amine (enantiomer 1)]
3 | 9.06 | CC(C)n1c(C2CCCN(C(=O)c3ccnc(N(C)C)c3)C2)nc2ccccc21 (single isomer, unassigned; enantiomer 2) [Example 3, N,N-Dimethyl-4-{3-[1-(propan-2-yl)-1H-1,3-benzodiazol-2-yl]piperidine-1-carbonyl}pyridin-2-amine (enantiomer 2)]
4 | 1.22 | CN(C)c1cc(C(=O)N2CCCC(c3nc4ccccc4n3C)C2)ccn1 (stereo not drawn) [Example 4, N,N-Dimethyl-4-[3-(1-methyl-1H-1,3-benzodiazol-2-yl)piperidine-1-carbonyl]pyridin-2-amine]
5 | 7.46 | CC(C)n1c(C2CCCN(C(=O)c3cnnc(Cl)c3)C2)nc2ccccc21 (stereo not drawn) [Example 5, 2-[1-(6-Chloropyridazine-4-carbonyl)piperidin-3-yl]-1-(propan-2-yl)-1H-1,3-benzodiazole]
6 | 1.74 | CNc1cc(C(=O)N2CCCC(c3nc4ccccc4n3C(C)C)C2)cnn1 (stereo not drawn) [Example 6, N-Methyl-5-{3-[1-(propan-2-yl)-1H-1,3-benzodiazol-2-yl]piperidine-1-carbonyl}pyridazin-3-amine]
7 | 1.82 | CCn1cc(C(=O)N2CCCC(c3nc4ccccc4n3C(C)C)C2)cn1 (stereo not drawn) [Example 7, 2-[1-(1-Ethyl-1H-pyrazole-4-carbonyl)piperidin-3-yl]-1-(propan-2-yl)-1H-1,3-benzodiazole]
8 | 1.07 | CN(C)c1cc(C(=O)N2CCCC(c3cc4ccccc4n3C)C2)ccn1 (stereo not drawn) [Example 8, N,N-Dimethyl-4-[3-(1-methyl-1H-indol-2-yl)piperidine-1-carbonyl]pyridin-2-amine]
9 | 1.08 | CNc1cc(C(=O)N2CCCC(c3cc4ccccc4n3C)C2)cnn1 (stereo not drawn) [Example 9, N-Methyl-5-[3-(1-methyl-1H-indol-2-yl)piperidine-1-carbonyl]pyridazin-3-amine]
10 | 0.39 | CCn1c(C2CCCN(C(=O)c3ccnc(N(C)C)c3)C2)cc2ccccc21 (stereo not drawn) [Example 10, 4-[3-(1-Ethyl-1H-indol-2-yl)piperidine-1-carbonyl]-N,N-dimethylpyridin-2-amine]
11 | 0.94 | CCn1c(C2CCCN(C(=O)c3cnnc(N(C)C)c3)C2)cc2ccccc21 (stereo not drawn) [Example 11, 5-[3-(1-Ethyl-1H-indol-2-yl)piperidine-1-carbonyl]-N,N-dimethylpyridazin-3-amine]
12 | 0.48 | CCn1c(C2CCCN(C(=O)c3cnnc(NC)c3)C2)cc2ccccc21 (stereo not drawn) [Example 12, 5-[3-(1-Ethyl-1H-indol-2-yl)piperidine-1-carbonyl]-N-methylpyridazin-3-amine]
13 | 0.76 | CC(C)n1c(C2CCCN(C(=O)c3cnnc(N(C)C)c3)C2)cc2ccccc21 (stereo not drawn) [Example 13, N,N-Dimethyl-5-{3-[1-(propan-2-yl)-1H-indol-2-yl]piperidine-1-carbonyl}pyridazin-3-amine]
14 | 0.54 | CNc1cc(C(=O)N2CCCC(c3cc4ccccc4n3C(C)C)C2)cnn1 (stereo not drawn) [Example 14, N-Methyl-5-{3-[1-(propan-2-yl)-1H-indol-2-yl]piperidine-1-carbonyl}pyridazin-3-amine]
15 | 0.33 | CCn1cc(C(=O)N2CCCC(c3cc4ccccc4n3C(C)C)C2)cn1 (stereo not drawn) [Example 15, 2-{1-[(1-Ethyl-1H-pyrazol-4-yl)carbonyl]piperidin-3-yl}-1-(propan-2-yl)-1H-indole]
16 | 1.44 | CC(C)n1c(C2CCCN(C(=O)c3cn(C)nc3N)C2)cc2ccccc21 (stereo not drawn) [Example 16, 1-Methyl-4-{3-[1-(propan-2-yl)-1H-indol-2-yl]piperidine-carbonyl}-1H-pyrazol-3-amine]
17 | 2.59 | CCn1cc(C(=O)N2CCCC(c3cc4cc(C)ccc4n3CC)C2)cn1 (stereo not drawn) [Example 17, 1-Ethyl-2-{1-[(1-ethyl-1H-pyrazol-4-yl)carbonyl]piperidin-3-yl}-5-methyl-1H-indole]
18 | 2.17 | CCn1c(C2CCCN(C(=O)c3cnnc(NC)c3)C2)c(C)c2ccccc21 (stereo not drawn) [Example 18, 5-[3-(1-Ethyl-3-methyl-1H-indol-2-yl)piperidine-1-carbonyl]-N-methylpyridazin-3-amine]

Row | IC50 [µM] | Structure (SMILES)
19 | 2.69 | CCn1c(C2CCCN(C(=O)c3cnnc(NC)c3)C2)cc2cc(C)ccc21 (stereo not drawn) [Example 19, 5-[3-(1-Ethyl-5-methyl-1H-indol-2-yl)piperidine-1-carbonyl]-N-methylpyridazin-3-amine]
20 | 1.25 | CCn1c(C2CCCN(C(=O)c3cnnc(NC)c3)C2)cc2cc(Cl)ccc21 (stereo not drawn) [Example 20, 5-[3-(5-Chloro-1-ethyl-1H-indol-2-yl)piperidine-1-carbonyl]-N-methylpyridazin-3-amine]
21 | 5.34 | CCn1c(C2CCCN(C(=O)c3cnnc(N(C)C)c3)C2)cc2cc(C)ccc21 (stereo not drawn) [Example 21, 5-[3-(1-Ethyl-5-methyl-1H-indol-2-yl)piperidine-1-carbonyl]-N,N-dimethylpyridazin-3-amine]
22 | 1.73 | CCn1c(C2CCCN(C(=O)c3cnnc(N(C)C)c3)C2)cc2cc(Cl)ccc21 (stereo not drawn) [Example 22, 5-[3-(5-Chloro-1-ethyl-1H-indol-2-yl)piperidine-1-carbonyl]-N,N-dimethylpyridazin-3-amine]
23 | 7.41 | CNc1cc(C(=O)N2CCCC(c3[nH]c4ccccc4c3C)C2)cnn1 (stereo not drawn) [Example 23, N-Methyl-5-[3-(3-methyl-1H-indol-2-yl)piperidine-1-carbonyl]pyridazin-3-amine]
24 | 7.41 | Cc1c(C2CCCN(C(=O)c3cnnc(N(C)C)c3)C2)[nH]c2ccccc12 (stereo not drawn) [Example 24, N,N-Dimethyl-5-[3-(3-methyl-1H-indol-2-yl)piperidine-1-carbonyl]pyridazin-3-amine]
25 | 7.86 | CCn1c(C2CCCN(C(=O)c3cn(C)nc3N)C2)c(C)c2ccccc21 (stereo not drawn) [Example 25, 4-[3-(1-Ethyl-3-methyl-1H-indol-2-yl)piperidine-1-carbonyl]-1-methyl-1H-pyrazol-3-amine]
26 | 3.12 | CCn1c(C2CCCN(C(=O)c3cn(C)nc3N)C2)cc2cc(C)ccc21 (stereo not drawn) [Example 26, 4-[3-(1-Ethyl-5-methyl-1H-indol-2-yl)piperidine-1-carbonyl]-1-methyl-1H-pyrazol-3-amine]
27 | 0.91 | CCn1c(C2CCCN(C(=O)c3cn(C)nc3N)C2)cc2cc(Cl)ccc21 (stereo not drawn) [Example 27, 4-[3-(5-Chloro-1-ethyl-1H-indol-2-yl)piperidine-1-carbonyl]-1-methyl-1H-pyrazol-3-amine]
28 | 1.04 | Cc1cc(Cl)cnc1C1CCCN(C(=O)c2cnnc(N(C)C)c2)C1 (stereo not drawn) [Example 28, 5-[3-(5-Chloro-3-methylpyridin-2-yl)piperidine-1-carbonyl]-N,N-dimethylpyridazin-3-amine]
29 | 0.48 | CNc1cc(C(=O)N2CCCC(OC)(c3ncc(Cl)cc3C(F)(F)F)C2)ccn1 (stereo not drawn) [Example 29, 4-{3-[5-Chloro-3-(trifluoromethyl)pyridin-2-yl]-3-methoxypiperidine-1-carbonyl}-N-methylpyridin-2-amine formate]
30 | 2.08 | CNc1cc(C(=O)N2CCCC(OC)(c3ncc(Cl)cc3C(F)(F)F)C2)cnn1 (stereo not drawn) [Example 30, 5-({3-[5-Chloro-3-(trifluoromethyl)pyridin-2-yl]-3-methoxypiperidin-1-yl}carbonyl)-N-methylpyridazin-3-amine]
31 | 1.62 | COC1(c2ncc(Cl)cc2C(F)(F)F)CCCN(C(=O)c2cnnc(N(C)C)c2)C1 (stereo not drawn) [Example 31, 5-{3-[5-Chloro-3-(trifluoromethyl)pyridin-2-yl]-3-methoxypiperidine-1-carbonyl}-N,N-dimethylpyridazin-3-amine]
32 | 1.88 | CCn1cc(C(=O)N2CCCC(OC)(c3ncc(Cl)cc3C(F)(F)F)C2)cn1 (stereo not drawn) [Example 32, 5-Chloro-2-[1-(1-ethyl-1H-pyrazole-4-carbonyl)-3-methoxypiperidin-3-yl]-3-(trifluoromethyl)pyridine]
33 | 0.51 | COC1(c2ncc(Cl)cc2C(F)(F)F)CCCN(C(=O)c2ccnc(N(C)C)c2)C1 (stereo not drawn) [Example 33, 4-{3-[5-Chloro-3-(trifluoromethyl)pyridin-2-yl]-3-methoxypiperidine-1-carbonyl}-N,N-dimethylpyridin-2-amine]
34 | 0.47 | CNc1cc(C(=O)N2CCCC(OC)(c3ncc(Cl)cc3C)C2)ccn1 (stereo not drawn) [Example 34, 4-[3-(5-Chloro-3-methylpyridin-2-yl)-3-methoxypiperidine-1-carbonyl]-N-methylpyridin-2-amine]
35 | 0.29 | CNc1cc(C(=O)N2CCCC(F)(c3ncc(Cl)cc3C)C2)ccn1 (stereo not drawn) [Example 35, 4-[3-(5-Chloro-3-methylpyridin-2-yl)-3-fluoropiperidine-1-carbonyl]-N-methylpyridin-2-amine]
36 | 1.49 | CNc1cc(C(=O)N2CCCC(OC)(c3ncc(Cl)cc3C)C2)cnn1 (stereo not drawn) [Example 36, 5-[3-(5-Chloro-3-methylpyridin-2-yl)-3-methoxypiperidine-1-carbonyl]-N-methylpyridazin-3-amine]
